Reference: patent publication US20120289884A1, “Fused Ring Diarylamino Photosensitizers for Phototherapy” (Mallinckrodt LLC, priority 2011, published 2012)
Like-named read-outs stand apart in the source and are kept apart here.

Test system: U937 leukemia cancer cell line
Assay: Cell viability (phototoxicity) WST-1 assay with and without UV light;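 also: WST-1 absorbance at 480 and 600 nm after 2 h compound preincubation, 20 min UV irradiation (peak 365 nm) or none, then 24 h recovery at 37 °C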
Conditions: for IC50: Homo sapiens, U-937, 20 min; for cell viability with increasing concentration of compound, light exposure: 20 minutes light exposure; for activity under the photolytic conditions (in words): UV-A/UV-B light
[1] = read-out: VC50/20, U937 cells, 20 minutes UV light exposure

Protocol: The compounds were dissolved in DMSO (8 mM) and diluted with the cell culture media such that the amount of the DMSO exposed to the cells remained below 0.5% (64 mM). After light exposure, cell viability is assessed using a WST-1 (4-[3-(4-Iodophenyl)-2-(4-nitrophenyI)-2H-5-tetrazolio]-1, 3-benzene disulfonate) cell proliferation assay (Roche Diagnostics, NJ, USA). At the end of 22 hours, WST-1 is added to each well of plate. After 2 hours of incubation, the metabolic activity is quantified by absorbance measurements at 480nm and 600nm using a Synergy 4 plate reader (BioTEK Instruments, VT, USA). The number of viable cells is determined and percent viability is determined:
Viability measurements are analyzed to provide VC50/20 values which is defined as the concentration at which 50% decrease in cell viability is observed when the cells are exposed to light and the photosensitizes for 20 minutes.
Photoxicity of diarylamines were tested for their photo-toxicity in U937 cells (ATCC,VA) a monocytic leukemia cell line. Cells were cultured, harvested and counted with trypan blue exclusion method to ensure 95% viability. The cells were then plated at a density of 20,000 cells/well in flat bottom 96 well plates and incubated overnight. On the following day, dilutions of the compounds to be screened were prepared in complete RPMI media and added to cells followed by a 2-hour incubation. After the preincubation time, the cells were irradiated for 20 minutes with 100 W UV lamp (Model B-100A, UVP, Upland, Calif.) with peak output at 365 nm and a bandwidth of about 50 nm. The light source was not optimized for each compound with respect to power and wavelength. The total power near the surface of the microtiter plate is about 8 mW. The temperature at the surface of the microtiter plates were kept below 37° C. with external air cooling. After light exposure, cells were allowed to recover at 37° C. in a CO2 incubator for 24 h, and thereafter the viability was assessed using a WST-1 (4-[3-(4-Iodophenyl)-2-(4-nitrophenyl)-2H-5-tetrazolio]-1,3-benzene disulfonate) cell proliferation assay (Roche Diagnostics, NJ, USA). At the end of 22 hours, WST-1 was added to each well of plate. After 2 hours of incubation, the metabolic activity was quantified by absorbance measurements at 480 nm and 600 nm using a Synergy 4 plate reader (BioTEK Instruments, VT, USA). The percent viability was calculated as [OD value of treated cells/mean OD value of control cells]×100%). The percent cell viability assay values were then plotted in Graph Pad Prism (Graph Pad Software Inc, La Jolla, Calif.) and VC50/20 values for each compound was obtained using nonlinear regression analysis of the log inhibitor versus response in a 4 parameter curve fit. Each compound was tested for minimum of n=3. The corresponding control conditions for the cell viability assays were: (a) DMSO only (no photosensitizer), no light; (b) DMSO only (no photosensitizer) light; and (c) photosensitizer, no light (dark toxicity).
A general procedure is carried out for measuring cell viability upon exposure of U937 leukemia cells to a number of diarylamino photosensitizers of the invention and light. U937 cells are harvested and counted with trypan blue exclusion method to ensure viability. The cells are then plated at a density of 20,000 cells/well in flat bottom 96 well plates and incubated overnight. On the following day, dilutions of the compounds to be screened are prepared in complete RPMI media and added to cells followed by a 2 hour incubation. After the preincubation time, cells are exposed to UV light for various times and then allowed to recover at 37° C. in a CO2 incubator for 24 h.
The cell viability analysis is carried out using a human myeloid leukemia U937 cell line by the standard WST-1 assay.

Structure (SMILES): C1=Cc2ccccc2Nc2ccccc21 [(FX8), 5H-Dibenz[b,f]azepine]
- IC50 (read-out: VC50/20): 2.58 ± 1.14 µM
- IC50 [1]: ~2.58 µM
- cell viability with increasing concentration of compound, light exposure (U937 cells): substantial decrease in cell viability
- activity under the photolytic conditions (in words) (U937 cells): very active

Structure (SMILES): c1ccc(C2c3ccccc3Nc3ccccc32)cc1 [(FX17), 9-phenylacridan]
- IC50 (read-out: VC50/20): 0.17 ± 0.01 µM
- IC50 [1]: 0.17 µM
- cell viability with increasing concentration of compound, light exposure (U937 cells): substantial decrease in cell viability
- activity under the photolytic conditions (in words) (U937 cells): most potent

Structure (SMILES): CN1c2ccccc2Cc2ccccc21 [(FX19), N-methylacridan]
- activity under the photolytic conditions (in words) (U937 cells): decreased the activity

Structure (SMILES): c1ccc2c(c1)[nH]c1ccccc12 [(FX3), carbazole]
- IC50 (read-out: VC50/20): 5.56 ± 1.15 µM
- IC50 [1]: ~5 µM
- cell viability with increasing concentration of compound, light exposure (U937 cells): substantial decrease in cell viability
- activity under the photolytic conditions (in words) (U937 cells): moderately active

Structure (SMILES): c1ccc2c(c1)Nc1ccccc1S2 [(FX10), phenothiazine]
- IC50 (read-out: VC50/20): 1.39 ± 0.11 µM
- IC50 [1]: ~1.39 µM
- cell viability with increasing concentration of compound, light exposure (U937 cells): substantial decrease in cell viability
- activity under the photolytic conditions (in words) (U937 cells): highly active

Structure (SMILES): c1ccc2c(c1)Cc1ccccc1N2 [(FX9), acridan]
- IC50 (read-out: VC50/20): 0.68 ± 0.11 µM
- IC50 [1]: 0.68 µM
- cell viability with increasing concentration of compound, light exposure (U937 cells): substantial decrease in cell viability
- activity under the photolytic conditions (in words) (U937 cells): very potent
- cell viability with increasing concentration of compound, no light exposure (dark toxicity) (U937 cells, no light exposure): no substantial decrease in cell viability

Structure (SMILES): c1ccc2c(c1)Nc1ccccc1O2 [(FX11), Phenoxazine]
- IC50 (read-out: VC50/20): 14.5 ± 1.54 µM
- cell viability with increasing concentration of compound, light exposure (U937 cells): substantial decrease in cell viability
- activity under the photolytic conditions (in words) (U937 cells): weakly active

Structure (SMILES): c1ccc(Nc2ccccc2)cc1 [(FX20), Diphenylamine]
- activity under the photolytic conditions (in words) (U937 cells): inactive

Structure (SMILES): c1ccc(C2c3ccccc3Nc3ccccc32)cc1 [(FX7)]
- activity under the photolytic conditions (in words) (U937 cells): less active
